Measured values as given in patent publication US4008323A, “Method of reducing cholesterol using certain aromatic keto acids” (Pierre Fabre S.A., priority 1974, dated 1977).
Like-named read-outs stand apart in the source and are kept apart here.

What was measured:
[1] = test system: writhings induced by acetic acid; experiment: Writhing test, acetic acid (analgetic); assay type: in vivo, male mouse; details: 200 mg/kg by mouth, t + 60 to t + 70 min
Method: The administration of the compounds is effected by mouth at the time t. […] The determination of the writhings is effected from t + 60 min. to t + 70 min. The vehicle used for the administration of the products is a 5% solution of Tween 80 in 0.9% NaCl which will serve as control.

[2] = test system: carrageenin edema; experiment: Carrageenin edema test in rats (antiinflammatory); assay type: in vivo; details: for change in vivo at 30 mg/kg / change in vivo at 50 mg/kg / change in vivo at 100 mg/kg / change in vivo at 200 mg/kg: Rattus norvegicus
Method: The antiinflammatory properties were shown by the carrageenin edema test in rats, the products having been administered orally 1 hour before the intrapodal injection of 0.05 ml of a 2% suspension of carrageenin; the volume of the rat's paw was measured by plethysmoscopy 3, 4 and 6 hours afterwards.
The experiment concerned for each lot […]; one lot of animals receiving only the vehicle (2 ml/100 g of Tween + water) which served for the administration of the products, constituted the control lot. The following table sets forth the results obtained: […]

[3] = Solubility properties; assay type: physicochemical
[4] = Acute toxicity in mice, oral LD50 (method of Miller & Tainter); details: mouse, in vivo, mortality determined 48 hours after administration
Method: The chemical compounds previously described were submitted to toxicity tests. It was determined in mice by oral administration and was calculated in accordance with the method of MILLER & TAINTER. It is generally low and greater than 1000 mg/kg.

[5] = test system: total blood cholesterol; experiment: Total blood cholesterol in rats on a normal diet (hypocholesterolemizing); assay type: in vivo; details: 300 mg/kg oral, 4 consecutive days; 5th day, fasted 16 hours
Method: One lot of rats served as control.
The sampling was effected on the 5th day after 16 hours fasting, by cardiac puncture and the total blood cholesterol determination was effected by the Liebermann-Burchardt colorimetric method.

SMILES: C=C(CC(=O)c1ccc(-c2ccccc2Cl)cc1)C(=O)O [F 1379, 2-methylene 4-oxo 4-(4'-orthochlorophenylphenyl) butyric acid]
- % Decrease (of writhings) [1]: 18,4%
- Mean No. of Writhings [1]: 31,8
- % increase in volume of the paw, cumulative (m) ([2]; 30 mg/kg oral): 179,6%
- Action, cumulative ([2]; 30 mg/kg oral): -11,7%
- % increase in volume of the paw, cumulative (m) ([2]; 50 mg/kg oral): 106,1%
- Action, cumulative ([2]; 50 mg/kg oral): -44,4%
- % increase in volume of the paw, cumulative (m) ([2]; 100 mg/kg oral): 83,6%
- Action, cumulative ([2]; 100 mg/kg oral): -56,2%
- % increase in volume of the paw, cumulative (m) ([2]; 200 mg/kg oral): 77,5%
- Action, cumulative ([2]; 200 mg/kg oral): -59,4%
- change in vivo at 30 mg/kg ([2]; 30 mg/kg oral, + 3 hrs, read-out: % increase in volume of the paw, mean (m)): 58.4%
- change in vivo at 30 mg/kg ([2]; 30 mg/kg oral, + 3 hrs, read-out: Action (variation of paw volume increase vs controls)): -17.6%
- change in vivo at 30 mg/kg ([2]; 30 mg/kg oral, + 4 hrs, read-out: % increase in volume of the paw, mean (m)): 60.1%
- change in vivo at 30 mg/kg ([2]; 30 mg/kg oral, + 4 hrs, read-out: Action (variation of paw volume increase vs controls)): -9.6%
- change in vivo at 30 mg/kg ([2]; 30 mg/kg oral, + 6 hrs, read-out: % increase in volume of the paw, mean (m)): 61.1%
- change in vivo at 30 mg/kg ([2]; 30 mg/kg oral, + 6 hrs, read-out: Action (variation of paw volume increase vs controls)): -7%
- change in vivo at 50 mg/kg ([2]; 50 mg/kg oral, + 3 hrs, read-out: % increase in volume of the paw, mean (m)): 24.4%
- change in vivo at 50 mg/kg ([2]; 50 mg/kg oral, + 3 hrs, read-out: Action (variation of paw volume increase vs controls)): -58.2%
- change in vivo at 50 mg/kg ([2]; 50 mg/kg oral, + 4 hrs, read-out: % increase in volume of the paw, mean (m)): 34.4%
- change in vivo at 50 mg/kg ([2]; 50 mg/kg oral, + 4 hrs, read-out: Action (variation of paw volume increase vs controls)): -47%
- change in vivo at 50 mg/kg ([2]; 50 mg/kg oral, + 6 hrs, read-out: % increase in volume of the paw, mean (m)): 47.4%
- change in vivo at 50 mg/kg ([2]; 50 mg/kg oral, + 6 hrs, read-out: Action (variation of paw volume increase vs controls)): -29.7%
- change in vivo at 100 mg/kg ([2]; 100 mg/kg oral, + 3 hrs, read-out: % increase in volume of the paw, mean (m)): 18.7%
- change in vivo at 100 mg/kg ([2]; 100 mg/kg oral, + 3 hrs, read-out: Action (variation of paw volume increase vs controls)): -67.9%
- change in vivo at 100 mg/kg ([2]; 100 mg/kg oral, + 4 hrs, read-out: % increase in volume of the paw, mean (m)): 26.1%
- change in vivo at 100 mg/kg ([2]; 100 mg/kg oral, + 4 hrs, read-out: Action (variation of paw volume increase vs controls)): -59.9%
- change in vivo at 100 mg/kg ([2]; 100 mg/kg oral, + 6 hrs, read-out: % increase in volume of the paw, mean (m)): 38.8%
- change in vivo at 100 mg/kg ([2]; 100 mg/kg oral, + 6 hrs, read-out: Action (variation of paw volume increase vs controls)): -42.5%
- change in vivo at 200 mg/kg ([2]; 200 mg/kg oral, + 3 hrs, read-out: % increase in volume of the paw, mean (m)): 19.6%
- change in vivo at 200 mg/kg ([2]; 200 mg/kg oral, + 3 hrs, read-out: Action (variation of paw volume increase vs controls)): -66.4%
- change in vivo at 200 mg/kg ([2]; 200 mg/kg oral, + 4 hrs, read-out: % increase in volume of the paw, mean (m)): 25.1%
- change in vivo at 200 mg/kg ([2]; 200 mg/kg oral, + 4 hrs, read-out: Action (variation of paw volume increase vs controls)): -61.3%
- change in vivo at 200 mg/kg ([2]; 200 mg/kg oral, + 6 hrs, read-out: % increase in volume of the paw, mean (m)): 32.8%
- change in vivo at 200 mg/kg ([2]; 200 mg/kg oral, + 6 hrs, read-out: Action (variation of paw volume increase vs controls)): -51.3%
- Solubility in NN-dimethyl acetamide ([3]; dimethyl acetamide): 25%
- Solubility in dimethyl sulfoxide ([3]; dimethyl sulfoxide): 20%
- Solubility in ethyl alcohol ([3]; ethyl alcohol / ethanol / alcohol): 1%
- Solubility in water ([3]; water, in words, listed as Example 6): insoluble
- LD50 at 48 h [4]: 1500 mg/kg
- Total blood cholesterol, M [5]: 0,62
